Laboratory results reported in ChEMBL document CHEMBL3751703, “Structure-based design of a bisphosphonate 5(3)-deoxyribonucleotidase inhibitor” (Medchemcomm, 2015).

Legend:
Homo sapiens = species on record: Homo sapiens; assay: Selectivity ratio of Ki for N-terminal hexaHis-tagged human cytosolic 5'(3')-deoxynucleotidase to Ki for N-terminal hexaHis-tagged human mitochondrial 5'(3')-deoxynucleotidase
[1] = target: 5'(3')-deoxyribonucleotidase, cytosolic type (Homo sapiens, UniProt Q8TCD5); assay: Inhibition of N-terminal hexaHis-tagged human cytosolic 5'(3')-deoxynucleotidase using dUMP as substrate
Chain of 5'(3')-deoxyribonucleotidase, cytosolic type (Q8TCD5 whole entry): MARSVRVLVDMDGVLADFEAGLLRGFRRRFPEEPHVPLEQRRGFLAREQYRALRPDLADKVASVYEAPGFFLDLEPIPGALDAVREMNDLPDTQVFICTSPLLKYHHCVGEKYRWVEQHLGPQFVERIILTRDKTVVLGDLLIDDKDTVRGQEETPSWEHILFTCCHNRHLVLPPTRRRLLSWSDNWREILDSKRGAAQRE

[2] = target: 5'(3')-deoxyribonucleotidase, mitochondrial (Homo sapiens, UniProt Q9NPB1); assay: Inhibition of N-terminal hexaHis-tagged human mitochondrial 5'(3')-deoxynucleotidase using dUMP as substrate
Chain of 5'(3')-deoxyribonucleotidase, mitochondrial (Q9NPB1 whole entry): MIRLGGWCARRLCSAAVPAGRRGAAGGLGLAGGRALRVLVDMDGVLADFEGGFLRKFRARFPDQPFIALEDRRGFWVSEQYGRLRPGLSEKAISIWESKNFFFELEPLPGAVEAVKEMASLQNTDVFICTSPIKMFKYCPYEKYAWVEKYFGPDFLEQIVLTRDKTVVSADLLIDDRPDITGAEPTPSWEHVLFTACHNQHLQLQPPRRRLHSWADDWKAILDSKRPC

Ratio Ki (Homo sapiens): 20 | Ki [1]: 21.7 µM | Ki [2]: 0.128 µM
SMILES: O=c1[nH]c(=O)n([C@H]2C[C@H]3O[C@](c4ccccc4)(P(=O)(O)O)OC[C@H]3O2)cc1/C=C/P(=O)(O)O
